Data reported in patent publication US5641746A, “Animal model for AIDS” (Rutgers State University of New Jersey, priority 1994, dated 1997).

Columns and labels:
[1] = system: intracellular free calcium; conditions: cited from earlier work
[2] = system: neurotoxic effects of gp120; conditions: on cells and in animals; cited from earlier work
[3] = system: gp120 binding to brain tissue; conditions: in vitro; cited from earlier work
HIV = conditions: in vitro; cited from earlier work
rats = experiment: Intrathecal VIP in rats; type: in vivo, rat
Procedure: Each animal was treated with VIP or Ringer's solution in a counterbalanced fashion. […] At a dose of 25 ug VIP/5 ul (5 ug/ul), there were 4 of 6 documented deaths. At 60 ug VIP/5 ul (12 ug/ul), there were 3 of 5 documented deaths.

Molecule | Effect on gp 120-CD4 induced increase of intracellular free calcium [1] | Effect on the neurotoxic effects of gp120 [2] | Effect on binding of gp120 [3] | Effect on HIV replication in cell culture (HIV) | Documented deaths (rats; 25 ug VIP/5 ul (5 ug/ul) IT) | Documented deaths (rats; 60 ug VIP/5 ul (12 ug/ul) IT) | Morbidity (rats; IT VIP) | Symptoms shown by all VIP-treated animals (rats; IT VIP, all doses) | Concentration shown to be effective to induce the desired symptoms (rats; IT, rats) [µg/µL] | AIDS-like symptoms in addition to neurological deficit (rats; VIP 25 ug/5 ul (5 ug/ul) IT)
COCCOC(=O)C1=C(C)NC(C)=C(C(=O)OC(C)C)C1c1cccc([N+](=O)[O-])c1 (stereo not shown) [nimodipine] | antagonize this effect | – | – | – | – | – | – | – | – | –
Vasoactive Intestinal Peptide [VIP] | – | potently inhibit | inhibit | inhibit | 4 of 6 | 3 of 5 | morbidity was observed | diarrhea, weight loss, monoparesis, lower limb deficits and mucous secretions | 2.55 to 12 | diarrhea, hind limb rigidity and damage to spinal tissue
